Reference: patent US20140000883A1, “PETROLEUM RECOVERY PROCESS AND SYSTEM” (Shell Oil Company, priority 2012, published 2014)

Experiment: Viscosity of crude blended with dimethyl sulfide (rheometer)
Type: physicochemical
Experimental: The quality of dimethyl sulfide as an oil recovery agent based on the crude oil viscosity lowering properties of dimethyl sulfide was evalulated. Three crude oils having widely disparate viscosity characteristics—an African Waxy crude, a Middle Eastern asphaltic crude, and a Canadian asphaltic crude—were blended with dimethyl sulfide.
A control sample of each crude was prepared containing no dimethyl sulfide, and samples of each crude were prepared and blended with dimethyl sulfide to prepare crude samples containing increasing concentrations of dimethyl sulfide. Each sample of each of the crudes was heated to 60° C. to dissolve any waxes therein and to permit weighing of a homogeneous liquid, weighed, allowed to cool overnight, then blended with a selected quantity of dimethyl sulfide. The samples of the crude/dimethyl sulfide blend were then heated to 60° C. and mixed to ensure homogeneous blending of the dimethyl sulfide in the samples. Absolute (dynamic) viscosity measurements of each of the samples were taken using a rheometer and closed cup sensor assembly. Viscosity measurements of each of the samples of the West African waxy crude and the Middle Eastern asphaltic crude were taken at 20° C., 40° C., 60° C., 80° C., and then again at 20° C. after cooling from 80° C., where the second measurement at 20° C. is taken to measure the viscosity without the presence of waxes since wax formation occurs slowly enough to permit viscosity measurement at 20° C. without the presence of wax. Viscosity measurements of each of the samples of the Canadian asphaltic crude were taken at 5° C., 10° C., 20° C., 40° C., 60° C., 80° C., The measured viscosities for each of the crudes are shown in Tables 4, 5, and 6 below.

Viscosity (DMS 1.21 wt. %, 20° C.): 125.8 mPa s
Viscosity (DMS 1.21 wt. %, 20° C. after cooling from 80° C.): 100.1 mPa s
Viscosity (DMS 1.21 wt. %, 40° C.): 30.94 mPa s
Viscosity (DMS 1.21 wt. %, 60° C.): 14.66 mPa s
Viscosity (DMS 1.21 wt. %, 80° C.): 8.92 mPa s
Viscosity (DMS 1.3 wt. %, 20° C.): 1733.8 mPa s
Viscosity (DMS 1.3 wt. %, 20° C. after cooling from 80° C.): 1624.8 mPa s
Viscosity (DMS 1.3 wt. %, 40° C.): 334.5 mPa s
Viscosity (DMS 1.3 wt. %, 60° C.): 106.7 mPa s
Viscosity (DMS 1.3 wt. %, 80° C.): 44.6 mPa s
Viscosity (DMS 2.48 wt. %, 20° C.): 122.3 mPa s
Viscosity (DMS 2.48 wt. %, 20° C. after cooling from 80° C.): 89.23 mPa s
Viscosity (DMS 2.48 wt. %, 40° C.): 30.53 mPa s
Viscosity (DMS 2.48 wt. %, 60° C.): 13.66 mPa s
Viscosity (DMS 2.48 wt. %, 80° C.): 8.44 mPa s
Viscosity (DMS 2.6 wt. %, 20° C.): 1026.6 mPa s
Viscosity (DMS 2.6 wt. %, 20° C. after cooling from 80° C.): 881.1 mPa s
Viscosity (DMS 2.6 wt. %, 40° C.): 219.9 mPa s
Viscosity (DMS 2.6 wt. %, 60° C.): 76.5 mPa s
Viscosity (DMS 2.6 wt. %, 80° C.): 34.3 mPa s
Viscosity (DMS 5.03 wt. %, 20° C.): 78.37 mPa s
Viscosity (DMS 5.03 wt. %, 20° C. after cooling from 80° C.): 55.21 mPa s
Viscosity (DMS 5.03 wt. %, 40° C.): 20.24 mPa s
Viscosity (DMS 5.03 wt. %, 60° C.): 10.45 mPa s
Viscosity (DMS 5.03 wt. %, 80° C.): 6.55 mPa s
Viscosity (DMS 5.3 wt. %, 20° C.): 496.5 mPa s
Viscosity (DMS 5.3 wt. %, 20° C. after cooling from 80° C.): 503.5 mPa s
Viscosity (DMS 5.3 wt. %, 40° C.): 134.2 mPa s
Viscosity (DMS 5.3 wt. %, 60° C.): 52.2 mPa s
Viscosity (DMS 5.3 wt. %, 80° C.): 25.5 mPa s
Viscosity (DMS 7.6 wt. %, 20° C.): 288.0 mPa s
Viscosity (DMS 7.60 wt. %, 20° C.): 60.92 mPa s
Viscosity (DMS 7.6 wt. %, 20° C. after cooling from 80° C.): 290.0 mPa s
Viscosity (DMS 7.60 wt. %, 20° C. after cooling from 80° C.): 40.89 mPa s
Viscosity (DMS 7.6 wt. %, 40° C.): 89.4 mPa s
Viscosity (DMS 7.60 wt. %, 40° C.): 17.08 mPa s
Viscosity (DMS 7.6 wt. %, 60° C.): 37.4 mPa s
Viscosity (DMS 7.60 wt. %, 60° C.): 9.29 mPa s
Viscosity (DMS 7.6 wt. %, 80° C.): 19.3 mPa s
Viscosity (DMS 7.60 wt. %, 80° C.): 6.09 mPa s
Viscosity (DMS 8.01 wt. %, 20° C.): 5799 mPa s
Viscosity (DMS 8.01 wt. %, 40° C.): 982 mPa s
Viscosity (DMS 8.01 wt. %, 60° C.): 275 mPa s
Viscosity (DMS 8.01 wt. %, 80° C.): 106 mPa s
Viscosity (DMS 9.80 wt. %, 20° C.): 2760 mPa s
Viscosity (DMS 9.80 wt. %, 40° C.): 571 mPa s
Viscosity (DMS 9.80 wt. %, 60° C.): 173 mPa s
Viscosity (DMS 9.80 wt. %, 80° C.): 73 mPa s
Viscosity (DMS 9.95 wt. %, 20° C.): 44.70 mPa s
Viscosity (DMS 9.95 wt. %, 20° C. after cooling from 80° C.): 30.61 mPa s
Viscosity (DMS 9.95 wt. %, 40° C.): 13.03 mPa s
Viscosity (DMS 9.95 wt. %, 60° C.): 7.58 mPa s
Viscosity (DMS 9.95 wt. %, 80° C.): 5.04 mPa s
Viscosity (DMS 10.1 wt. %, 20° C.): 150.0 mPa s
Viscosity (DMS 10.1 wt. %, 20° C. after cooling from 80° C.): 150.5 mPa s
Viscosity (DMS 10.1 wt. %, 40° C.): 52.4 mPa s
Viscosity (DMS 10.1 wt. %, 60° C.): 24.5 mPa s
Viscosity (DMS 10.1 wt. %, 80° C.): 13.5 mPa s
Viscosity (DMS 14.81 wt. %, 5° C.): 1794 mPa s
Viscosity (DMS 14.81 wt. %, 10° C.): 1155 mPa s
Viscosity (DMS 14.81 wt. %, 20° C.): 548 mPa s
Viscosity (DMS 14.81 wt. %, 40° C.): 159 mPa s
Viscosity (DMS 14.81 wt. %, 60° C.): 64 mPa s
Viscosity (DMS 14.81 wt. %, 80° C.): 32 mPa s
Viscosity (DMS 15.13 wt. %, 20° C.): 23.96 mPa s
Viscosity (DMS 15.13 wt. %, 20° C. after cooling from 80° C.): 17.64 mPa s
Viscosity (DMS 15.13 wt. %, 40° C.): 8.32 mPa s
Viscosity (DMS 15.13 wt. %, 60° C.): 4.97 mPa s
Viscosity (DMS 15.13 wt. %, 80° C.): 3.38 mPa s
Viscosity (DMS 15.2 wt. %, 20° C.): 59.4 mPa s
Viscosity (DMS 15.2 wt. %, 20° C. after cooling from 80° C.): 60.7 mPa s
Viscosity (DMS 15.2 wt. %, 40° C.): 25.2 mPa s
Viscosity (DMS 15.2 wt. %, 60° C.): 13.6 mPa s
Viscosity (DMS 15.2 wt. %, 80° C.): 8.2 mPa s
Viscosity (DMS 19.30 wt. %, 20° C.): 15.26 mPa s
Viscosity (DMS 19.30 wt. %, 20° C. after cooling from 80° C.): 12.06 mPa s
Viscosity (DMS 19.30 wt. %, 40° C.): 6.25 mPa s
Viscosity (DMS 19.30 wt. %, 60° C.): 4.05 mPa s
Viscosity (DMS 19.30 wt. %, 80° C.): 2.92 mPa s
Viscosity (DMS 19.78 wt. %, 20° C.): 188 mPa s
Viscosity (DMS 19.78 wt. %, 40° C.): 69 mPa s
Viscosity (DMS 19.78 wt. %, 60° C.): 33 mPa s
Viscosity (DMS 19.78 wt. %, 80° C.): 19 mPa s
Viscosity (DMS 20.1 wt. %, 20° C.): 29.9 mPa s
Viscosity (DMS 20.1 wt. %, 20° C. after cooling from 80° C.): 31.0 mPa s
Viscosity (DMS 20.1 wt. %, 40° C.): 14.8 mPa s
Viscosity (DMS 20.1 wt. %, 60° C.): 8.7 mPa s
Viscosity (DMS 20.1 wt. %, 80° C.): 5.7 mPa s
Viscosity (DMS 29.88 wt. %, 5° C.): 113 mPa s
Viscosity (DMS 29.88 wt. %, 10° C.): 81 mPa s
Viscosity (DMS 29.88 wt. %, 20° C.): 51 mPa s
Viscosity (DMS 29.88 wt. %, 40° C.): 22 mPa s
Viscosity (DMS 29.88 wt. %, 60° C.): 13 mPa s
Viscosity (DMS 29.88 wt. %, 80° C.): 8 mPa s
Viscosity (DMS 39.61 wt. %, 5° C.): 23 mPa s
Viscosity (DMS 39.61 wt. %, 10° C.): 20 mPa s
Viscosity (DMS 39.61 wt. %, 20° C.): 14 mPa s
Viscosity (DMS 39.61 wt. %, 40° C.): 8 mPa s
Viscosity (DMS 39.61 wt. %, 60° C.): 6 mPa s
Viscosity (DMS 39.61 wt. %, 80° C.): 4 mPa s
Structure (SMILES): CSC [Dimethyl Sulfide, dimethyl sulfide]
lowering the viscosity of a crude oil (three crudes, wide range of initial viscosities): effective for significantly lowering the viscosity
